The record followed here is patent publication US8039481B2, “Tetrahydrofuran derivatives for use as inhibitors of matrix metalloproteinases” (Sanofi-Aventis, priority 2005, dated 2011).

Type in all cases: biochemical
Assay [1] deals with T1, catalytic domain of human collagenase-3 (MMP-13) (Homo sapiens, UniProt P45452).
T1 construct: Determination of the Enzymatic Activity of the Catalytic Domain of Human Collagenase-3 (MMP-13); purchased INVITEK, Berlin 30 100 803
The assay is described as follows: Enzymatic activity of the catalytic domain of human collagenase-3 (MMP-13), fluorogenic substrate. As to the method: Determination of the Enzymatic Activity of the Catalytic Domain of Human Collagenase-3 (MMP-13)
Activation of the proenzyme: 2 parts by volume of proenzyme were incubated with 1 part by volume of APMA solution at 37° C. for 1.5 hours. The APMA solution was prepared from a 10 mmol/l p-aminophenylmercuric acetate solution in 0.1 mmol/l NaOH by dilution with 3 parts by volume of Tris/HCl buffer pH 7.5 (see below). The pH was adjusted to between 7.0 and 7.5 by adding 1 mmol/l HCl. After activation of the enzyme it was diluted with the Tris/HCl buffer to a concentration of 1.67 μg/ml.
(§1) The enzymic activity was measured by incubating 10 μl of enzyme solution with 10 μl of a 3% strength (v/v) buffered dimethyl sulfoxide solution (reaction 1) for 15 minutes. The enzyme inhibitor activity was measured by incubating 10 μl of enzyme solution with 10 μl of a 3% strength (v/v) buffered dimethyl sulfoxide solution which contained the enzyme inhibitor (reaction 2).
The enzymic reaction both in the case of reaction 1 and in the case of reaction 2 was followed after addition of 10 μl of a 3% strength (v/v) aqueous dimethyl sulfoxide solution which contained 0.075 mmol/l of the substrate by fluorescence spectroscopy (328 nm (extinction)/393 nm (emission)).
(§2) The enzymic activity has been presented as increase in extinction/minute. The effect of the inhibitor was calculated as percentage inhibition by the following formula: % inhibition=100−[(increase in extinction/minute in reaction 2)/(increase in extinction/minute in reaction 1)×100].
(§3) The IC50, which is the concentration of inhibitor which is necessary for 50% inhibition of the enzymic activity, was determined graphically by plotting the percentage inhibitions at various inhibitor concentrations.
The buffer solution contained 0.05% Brij (Sigma, Deisenhofen, Germany) and 0.1 mol/l Tris/HCl, 0.1 mol/l NaCl, 0.01 mol/l CaCl2 (pH=7.5). The enzyme solution contained 1.67 μg/ml of the enzyme domain. The substrate solution contained 0.075 mmol/l of the fluorogenic substrate (7-methoxycoumarin-4-yl)acetyl-Pro-Leu-Gly-Leu-3-(2′,4′-dinitrophenyl)-L-2,3-diaminopropionyl-Ala-Arg-NH2 (Bachem, Heidelberg, Germany).

Assay [2] has as its target catalytic domain of human gelatinase-A (MMP-2) (Homo sapiens, UniProt P08253). The assay is described as follows: Enzymatic activity of the catalytic domain of human gelatinase-A (MMP-2), fluorogenic substrate. As to the method:
Determination of the Enzymatic Activity of the Catalytic Domain of Human Gelatinase-A (MMP-2)
Activation of the proenzyme: 2 parts by volume of proenzyme were incubated with 1 part by volume of APMA solution at 37° C. for 0.5 hours. The APMA solution was prepared from a 10 mmol/l p-aminophenylmercuric acetate solution in 0.1 mmol/l NaOH by dilution with 3 parts by volume of Tris/HCl buffer pH 7.5 (see below). The pH was adjusted to between 7.0 and 7.5 by adding 1 mmol/l HCl. After activation of the enzyme it was diluted with the Tris/HCl buffer to a concentration of 0.83 μg/ml.
as §1
The enzymic reaction both in the case of reaction 1 and in the case of reaction 2 was followed after addition of 10 μl of a 3% strength (v/v) aqueous dimethyl sulfoxide solution which contained 0.3 mmol/l of the substrate by fluorescence spectroscopy (328 nm (extinction)/393 nm (emission)).
as §2, §3
The buffer solution contained 0.05% Brij (Sigma, Deisenhofen, Germany) and 0.1 mol/l Tris/HCl, 0.1 mol/l NaCl, 0.01 mol/l CaCl2 (pH=7.5). The enzyme solution contained 0.83 μg/ml of the enzyme domain. The substrate solution contained 0.3 mmol/l of the fluorogenic substrate (7-methoxycoumarin-4-yl)acetyl-Pro-Leu-Gly-Leu-3-(2′,4′-dinitrophenyl)-L-2,3-diaminopropionyl-Ala-Arg-NH2 (Bachem, Heidelberg, Germany).

Assay [3] addresses catalytic domain of human gelatinase-A (MMP-9) (Homo sapiens, UniProt P14780). The assay is described as follows: Enzymatic activity of the catalytic domain of human gelatinase-A (MMP-9), fluorogenic substrate. As to the method: Determination of the Enzymatic Activity of the Catalytic Domain of Human Gelatinase-A (MMP-9)
Activation of the proenzyme:
2 parts by volume of proenzyme were incubated with 1 part by volume of APMA solution at 37° C. for 4 hours. The APMA solution was prepared from a 10 mmol/l p-aminophenylmercuric acetate solution in 0.1 mmol/l NaOH by dilution with 3 parts by volume of Tris/HCl buffer pH 7.5 (see below). The pH was adjusted to between 7.0 and 7.5 by adding 1 mmol/l HCl. After activation of the enzyme it was diluted with the Tris/HCl buffer to a concentration of 4.2 mU/ml.
as §1
The enzymic reaction both in the case of reaction 1 and in the case of reaction 2 was followed after addition of 10 μl of a 3% strength (v/v) aqueous dimethyl sulfoxide solution which contained 0.15 mmol/l of the substrate by fluorescence spectroscopy (328 nm (extinction)/393 nm (emission)).
The enzymic activity has been presented as increase in extinction/minute.
The effect of the inhibitor was calculated as percentage inhibition by the following formula: % inhibition=100−[(increase in extinction/minute in reaction 2)/(increase in extinction/minute in reaction 1)×100].
as §3
The buffer solution contained 0.05% Brij (Sigma, Deisenhofen, Germany) and 0.1 mol/l Tris/HCl, 0.1 mol/l NaCl, 0.01 mol/l CaCl2 (pH=7.5). The enzyme solution contained 4.2 mU/ml of the enzyme domain. The substrate solution contained 0.15 mmol/l of the fluorogenic substrate (7-methoxycoumarin-4-yl)acetyl-Pro-Leu-Gly-Leu-3-(2′,4′-dinitrophenyl)-L-2,3-diaminopropionyl-Ala-Arg-NH2 (Bachem, Heidelberg, Germany).

Sequence of catalytic domain of human gelatinase-A (MMP-9) (P14780 107-444 limits assumed): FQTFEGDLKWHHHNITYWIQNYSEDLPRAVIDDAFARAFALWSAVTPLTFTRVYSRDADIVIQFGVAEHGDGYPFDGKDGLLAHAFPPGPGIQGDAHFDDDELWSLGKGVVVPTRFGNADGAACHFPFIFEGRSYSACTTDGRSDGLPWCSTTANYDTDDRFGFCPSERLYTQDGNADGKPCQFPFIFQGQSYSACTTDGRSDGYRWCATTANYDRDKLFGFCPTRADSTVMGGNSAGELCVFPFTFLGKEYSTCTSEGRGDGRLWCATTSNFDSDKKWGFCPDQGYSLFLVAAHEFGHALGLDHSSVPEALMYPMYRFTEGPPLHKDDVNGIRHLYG
Sequence of catalytic domain of human gelatinase-A (MMP-2) (P08253 110-465 limits assumed): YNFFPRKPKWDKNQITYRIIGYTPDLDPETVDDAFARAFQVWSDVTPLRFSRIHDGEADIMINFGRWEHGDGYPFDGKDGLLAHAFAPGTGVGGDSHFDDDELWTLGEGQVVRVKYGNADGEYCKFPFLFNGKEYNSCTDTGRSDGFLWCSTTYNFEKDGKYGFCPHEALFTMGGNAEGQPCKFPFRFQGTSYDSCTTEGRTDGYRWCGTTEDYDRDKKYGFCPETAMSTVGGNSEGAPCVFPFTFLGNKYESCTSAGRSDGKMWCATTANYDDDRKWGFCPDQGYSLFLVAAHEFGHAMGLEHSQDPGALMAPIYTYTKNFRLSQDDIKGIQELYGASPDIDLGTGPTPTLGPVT

In the case of `O=C(O)C1C2CCOC2CCN1S(=O)(=O)c1ccc(-c2ccc(Cl)cc2)cc1` (stereo not drawn) [Example 6, 5-(4′-chlorobiphenyl-4-sulfonyl)octahydrofuro[3,2-c]pyridine-4-carboxylic acid], the IC50 in assay [1] turned out to be 290 nM; in assay [2], 38 nM; in assay [3], 2200 nM.
The corresponding values for `O=C(NO)C1C2CCOC2CCN1S(=O)(=O)c1ccc(-c2ccc(Cl)cc2)cc1` (stereo not drawn) [Example 7, 5-(4′-chlorobiphenyl-4-sulfonyl)octahydrofuro[3,2-c]pyridine-4-(N-hydroxy)-carboxamide] are 1.8 nM, 1.7 nM and 2.4 nM.
For `O=C(NO)[C@H]1[C@H]2CCO[C@H]2CCN1S(=O)(=O)c1ccc(-c2ccc(Cl)cc2)cc1` [Example 8], the half-maximal inhibitory concentration (IC50) was 1 nM in assay [1], 0.8 nM in assay [2] and 1.5 nM in assay [3].
The corresponding values for `O=C(NO)[C@@H]1[C@@H]2CCO[C@@H]2CCN1S(=O)(=O)c1ccc(-c2ccc(Cl)cc2)cc1` [Example 9] are 58 nM, 71 nM and 120 nM.
The corresponding values for `O=C(O)C1C2CCOC2CCN1S(=O)(=O)c1ccc(Oc2ccc(F)cc2)cc1` (stereo not drawn) [Example 10, 5-[4-(4-fluorophenoxy)benzenesulfonyl]octahydrofuro[3,2-c]pyridine-4-carboxylic acid] are 520 nM, 440 nM and 2500 nM.
The like results for `O=C(NO)C1C2CCOC2CCN1S(=O)(=O)c1ccc(Oc2ccc(F)cc2)cc1` (stereo not drawn) [Example 11, 5-[4-(4-fluorophenoxy)benzenesulfonyl]octahydrofuro[3,2-c]pyridine-4-(N-hydroxy)-carboxamide] were, in that order, 2 nM, 2 nM and 3 nM.
In the case of `O=C(NO)[C@H]1[C@H]2CCO[C@H]2CCN1S(=O)(=O)c1ccc(Oc2ccc(F)cc2)cc1` [Example 12], the 50% inhibitory concentration (IC50) was determined as 0.7 nM in assay [1], 0.8 nM in assay [2] and 1.3 nM in assay [3].
The like results for `O=C(NO)[C@@H]1[C@@H]2CCO[C@@H]2CCN1S(=O)(=O)c1ccc(Oc2ccc(F)cc2)cc1` [Example 13] were, in that order, 63 nM, 47 nM and 150 nM.
The corresponding values for `O=C(NO)C1C2CCOC2CCN1S(=O)(=O)c1ccc(Oc2ccc(Cl)cc2)cc1` (stereo not drawn) [Example 18, 5-[4-(4-chlorophenoxy)benzenesulfonyl]octahydrofuro[3,2-c]pyridine-4-(N-hydroxy)-carboxamide] are 1 nM, 2 nM and 2 nM.
Regarding `N#Cc1ccc(Oc2ccc(S(=O)(=O)N3CC[C@@H]4OCC[C@@H]4[C@@H]3C(=O)NO)cc2)cc1` [Example 21], the values for the 50% inhibitory concentration (IC50) in assay [1], in assay [2] and in assay [3] were 1 nM, 1 nM and 8 nM, respectively.
`CS(=O)(=O)c1ccc(Oc2ccc(S(=O)(=O)N3CC[C@@H]4OCC[C@@H]4[C@@H]3C(=O)NO)cc2)cc1` [Example 23]: the values for the IC50 in assay [1], in assay [2] and in assay [3] were 1 nM, 1 nM and 5 nM, respectively.
